Among the data in patent US20230278984A1 (Global Blood Therapeutics, Inc., priority 2020, published 2023) are AC50 and Emax values, retold here.

The target of this assay is T1, Human pyruvate kinase R (PKR) (Homo sapiens, UniProt P30613).
T1 construct: Human pyruvate kinase R (PKR), residues 14-574; 6x-His (N, cleaved yes); 8x-Arg (N, cleaved yes); SUMO (N, cleaved yes); host or cells: E. coli
Kind of assay: Biochemical assay for activation of pyruvate kinase R (Kinase-Glo luminescence measurement of ATP generation). Conditions: for AC50: PKR biochemical assay, 0.1 nM PKR, 0.3 mM ADP, 2 mM FBP, 0.1 mM PEP; for Emax: maximal activation level relative to the activation level achieved by the literature compound AG-348 @ 10 μM. The method in brief:
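Recombinant human PKR (residues 14-574), E. coli-expressed with His-Arg-SUMO tag removed, purified by Ni-NTA, anion exchange and size exclusion. Activation measured as ATP generation via Kinase-Glo luminescence.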
On the technique in general: In Kinase-Glo more light means more ATP remaining.

T1 sequence (P30613 14-574): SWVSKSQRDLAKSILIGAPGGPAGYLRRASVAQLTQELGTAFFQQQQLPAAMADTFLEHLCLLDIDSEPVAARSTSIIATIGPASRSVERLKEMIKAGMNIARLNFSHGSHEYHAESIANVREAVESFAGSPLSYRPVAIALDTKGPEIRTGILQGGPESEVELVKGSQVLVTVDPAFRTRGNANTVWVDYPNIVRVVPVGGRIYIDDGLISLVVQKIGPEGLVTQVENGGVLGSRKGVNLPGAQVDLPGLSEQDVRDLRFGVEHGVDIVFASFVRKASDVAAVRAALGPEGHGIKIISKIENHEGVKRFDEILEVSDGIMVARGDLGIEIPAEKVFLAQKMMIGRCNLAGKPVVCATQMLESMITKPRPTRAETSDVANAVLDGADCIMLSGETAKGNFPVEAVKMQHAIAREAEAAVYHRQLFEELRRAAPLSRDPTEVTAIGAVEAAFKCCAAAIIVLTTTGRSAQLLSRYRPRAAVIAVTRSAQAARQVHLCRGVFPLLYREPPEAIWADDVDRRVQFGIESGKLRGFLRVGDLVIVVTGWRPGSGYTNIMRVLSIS

Consider `O=C(NCc1ncnn1-c1ccc2ncccc2c1)NCc1ncnn1-c1ccc2ncccc2c1` [Compound 71, 1,3-bis({[1-(quinolin-6-yl)-1H-1,2,4-triazol-5-yl]methyl})urea], for which the activity was half-maximal at 930 nM (AC50) and the Emax (as a rule, the greatest response seen or fitted, relative to the assay's reference) was 48%.
For the molecule `Cc1ccc(-n2nnnc2CNC(=O)NCc2nnnn2C2CCCCC2)cc1C` [Compound 72, 1-[(1-cyclohexyl-1H-1,2,3,4-tetrazol-5-yl)methyl]-3-{[1-(3,4-dimethylphenyl)-1H-1,2,3,4-tetrazol-5-yl]methyl}urea], the AC50 – broadly, the concentration giving half of the maximal activity seen – worked out at 1800 nM and the Emax came out at 68%.
`Cc1nc(CNC(=O)NCc2nc(C)nn2-c2ccc(Cl)cc2)n(-c2ccc(Cl)cc2)n1` [Compound 73, 1,3-bis({[1-(4-chlorophenyl)-3-methyl-1H-1,2,4-triazol-5-yl]methyl})urea] had an AC50 of 190 nM and a maximum response (Emax) of 107%.
For `Cc1ccc(-n2ncnc2CNC(=O)NCc2ncnn2-c2ccc(C)nc2)cn1` [Compound 74, 1,3-bis({[1-(6-methylpyridin-3-yl)-1H-1,2,4-triazol-5-yl]methyl})urea] the same measures were 2800 nM and 36%.
On the same counts, the results for `O=C(NCc1ncnn1-c1ccc(Cl)c(F)c1)NCc1ncnn1-c1ccc2cccnc2c1` [Compound 75, 1-{[1-(4-chloro-3-fluorophenyl)-1H-1,2,4-triazol-5-yl]methyl}-3-{[1-(quinolin-7-yl)-1H-1,2,4-triazol-5-yl]methyl}urea] are 33 nM and 47%.
On the same counts, the results for `O=C(NCc1ncnn1-c1ccc(Cl)c(F)c1)NCc1nnnn1-c1ccc2c(c1)OC(F)(F)O2` [Compound 76, 1-{[1-(4-chloro-3-fluorophenyl)-1H-1,2,4-triazol-5-yl]methyl}-3-{[1-(2,2-difluoro-2H-1,3-benzodioxol-5-yl)-1H-1,2,3,4-tetrazol-5-yl]methyl}urea] are 460 nM and 74%.
For the molecule `Cc1nc(CNC(=O)NCc2nc(C)nn2-c2ccc(Cl)c(F)c2)n(-c2ccc(Cl)c(F)c2)n1` [Compound 77, 1,3-bis({[1-(4-chloro-3-fluorophenyl)-3-methyl-1H-1,2,4-triazol-5-yl]methyl})urea], the AC50 is 51 nM and the Emax was 93%.
With `Cc1nc(CNC(=O)N(C)Cc2nc(C)nn2-c2ccc(Cl)c(F)c2)n(-c2ccc(Cl)c(F)c2)n1` [Compound 78, 1,3-bis({[1-(4-chloro-3-fluorophenyl)-3-methyl-1H-1,2,4-triazol-5-yl]methyl})-1-methylurea], half-maximal activity (AC50) was put at 110 nM and the Emax was 88%.
On the same counts, the results for `Cc1ccc(-n2ncnc2CN(C)C(=O)NCc2nc(C)nn2-c2ccc(Cl)c(F)c2)cn1` [Compound 79, 3-{[1-(4-chloro-3-fluorophenyl)-3-methyl-1H-1,2,4-triazol-5-yl]methyl}-1-methyl-1-{[1-(6-methylpyridin-3-yl)-1H-1,2,4-triazol-5-yl]methyl}urea] are 160 nM and 53%.
`O=C(NCc1ncnn1-c1ccc2cccnc2c1)NCc1nnnn1-c1ccc(Cl)c(F)c1` [Compound 80, 1-{[1-(4-chloro-3-fluorophenyl)-1H-1,2,3,4-tetrazol-5-yl]methyl}-3-{[1-(quinolin-7-yl)-1H-1,2,4-triazol-5-yl]methyl}urea] showed a half-maximal activity concentration (AC50) of 200 nM and an Emax of 106%.
For `O=C(NCc1ncnn1-c1ccc2cccnc2c1)NCc1ncnn1-c1ccc2cccnc2c1` [Compound 81, 1,3-bis({[1-(quinolin-7-yl)-1H-1,2,4-triazol-5-yl]methyl})urea] the same measures were 280 nM and 64%.
For `Cc1nc(CNC(=O)NCc2ncnn2-c2ccc3cnccc3c2)n(-c2ccc(Cl)c(F)c2)n1` [Compound 82, 1-{[1-(4-chloro-3-fluorophenyl)-3-methyl-1H-1,2,4-triazol-5-yl]methyl}-3-{[1-(isoquinolin-6-yl)-1H-1,2,4-triazol-5-yl]methyl}urea] the same measures were 270 nM and 85%.
`O=C(NCc1ncnn1-c1ccc2cccnc2c1)NCc1nc(C2CC2)nn1-c1ccc(Cl)c(F)c1` [Compound 83, 1-{[1-(4-chloro-3-fluorophenyl)-3-cyclopropyl-1H-1,2,4-triazol-5-yl]methyl}-3-{[1-(quinolin-7-yl)-1H-1,2,4-triazol-5-yl]methyl}urea] had an AC50 of 72 nM and an Emax of 83%.
For `Cc1nc(CNC(=O)NCc2nc(C)nn2-c2ccc3cccnc3c2)n(-c2ccc3cccnc3c2)n1` [Compound 84, 1,3-bis({[3-methyl-1-(quinolin-7-yl)-1H-1,2,4-triazol-5-yl]methyl})urea] the same measures were 520 nM and 94%.
On the same counts, the results for `Cc1nc(CNC(=O)NCc2ncnn2-c2ccc(Cl)c(F)c2)n(-c2ccc3cccnc3c2)n1` [Compound 85, 1-{[1-(4-chloro-3-fluorophenyl)-1H-1,2,4-triazol-5-yl]methyl}-3-{[3-methyl-1-(quinolin-7-yl)-1H-1,2,4-triazol-5-yl]methyl}urea] are 36 nM and 67%.
On the same counts, the results for `Cc1nc(CNC(=O)NCc2nnnn2-c2ccc(Cl)c(F)c2)n(-c2ccc3cccnc3c2)n1` [Compound 86, 1-{[1-(4-chloro-3-fluorophenyl)-1H-1,2,3,4-tetrazol-5-yl]methyl}-3-{[3-methyl-1-(quinolin-7-yl)-1H-1,2,4-triazol-5-yl]methyl}urea] are 66 nM and 90%.
For the molecule `Cc1nc(CNC(=O)NCc2nc(C)nn2-c2ccc3cccnc3c2)n(-c2ccc(Cl)c(F)c2)n1` [Compound 87, 1-{[1-(4-chloro-3-fluorophenyl)-3-methyl-1H-1,2,4-triazol-5-yl]methyl}-3-{[3-methyl-1-(quinolin-7-yl)-1H-1,2,4-triazol-5-yl]methyl}urea], the half-maximal activity concentration (AC50) stood at 83 nM and the maximal effect (Emax) was 87%.
For `Cc1nc(CNC(=O)NCc2ncnn2-c2ccc3cncnc3c2)n(-c2ccc(Cl)c(F)c2)n1` [Compound 88, 1-{[1-(4-chloro-3-fluorophenyl)-3-methyl-1H-1,2,4-triazol-5-yl]methyl}-3-{[1-(quinazolin-7-yl)-1H-1,2,4-triazol-5-yl]methyl}urea] the same measures were 70 nM and 68%.
On the same counts, the results for `Cc1nc(CNC(=O)NCc2n[nH]c(=O)n2-c2ccc(Cl)c(F)c2)n(-c2ccc(Cl)c(F)c2)n1` [Compound 89, 1-{[1-(4-chloro-3-fluorophenyl)-3-methyl-1H-1,2,4-triazol-5-yl]methyl}-3-{[4-(4-chloro-3-fluorophenyl)-5-oxo-4,5-dihydro-1H-1,2,4-triazol-3-yl]methyl}urea] are 31 nM and 91%.
For `Cc1nc(CNC(=O)NCc2nn(C)c(=O)n2-c2ccc(Cl)c(F)c2)n(-c2ccc(Cl)c(F)c2)n1` [Compound 90, 3-{[4-(4-chloro-3-fluorophenyl)-1-methyl-5-oxo-4,5-dihydro-1H-1,2,4-triazol-3-yl]methyl}-1-{[1-(4-chloro-3-fluorophenyl)-3-methyl-1H-1,2,4-triazol-5-yl]methyl}urea] the same measures were 40 nM and 97%.
In the case of `O=C(NCc1ncnn1-c1ccc(Cl)c(F)c1)NCc1nc(C2CC2)nn1-c1ccc2cccnc2c1` [Compound 91, 1-{[1-(4-chloro-3-fluorophenyl)-1H-1,2,4-triazol-5-yl]methyl}-3-{[3-cyclopropyl-1-(quinolin-7-yl)-1H-1,2,4-triazol-5-yl]methyl}urea], the AC50 came to 49 nM and the Emax was 61%.
On the same counts, the results for `CCc1nc(CNC(=O)NCc2ncnn2-c2ccc(Cl)c(F)c2)n(-c2ccc3cccnc3c2)n1` [Compound 92, 1-{[1-(4-chloro-3-fluorophenyl)-1H-1,2,4-triazol-5-yl]methyl}-3-{[3-ethyl-1-(quinolin-7-yl)-1H-1,2,4-triazol-5-yl]methyl}urea] are 52 nM and 72%.
On the same counts, the results for `Cc1nc(CNC(=O)NCc2nc(CO)nn2-c2ccc(Cl)c(F)c2)n(-c2ccc3cccnc3c2)n1` [Compound 93, 1-{[1-(4-chloro-3-fluorophenyl)-3-(hydroxymethyl)-1H-1,2,4-triazol-5-yl]methyl}-3-{[3-methyl-1-(quinolin-7-yl)-1H-1,2,4-triazol-5-yl]methyl}urea] are 150 nM and 100%.
On the same counts, the results for `Cc1nc(CNC(=O)NCc2nc(CCO)nn2-c2ccc(Cl)c(F)c2)n(-c2ccc3cccnc3c2)n1` [Compound 94, 1-{[1-(4-chloro-3-fluorophenyl)-3-(2-hydroxyethyl)-1H-1,2,4-triazol-5-yl]methyl}-3-{[3-methyl-1-(quinolin-7-yl)-1H-1,2,4-triazol-5-yl]methyl}urea] are 730 nM and 87%.
For the molecule `COC(=O)c1cc(-n2nc(C)nc2CNC(=O)NCc2nc(C)nn2-c2ccc(Cl)c(F)c2)ccc1Cl` [Compound 95, methyl 2-chloro-5-(5-{[({[1-(4-chloro-3-fluorophenyl)-3-methyl-1H-1,2,4-triazol-5-yl]methyl}carbamoyl)amino]methyl}-3-methyl-1H-1,2,4-triazol-1-yl)benzoate], half-maximal activity (AC50) was put at 68 nM and the Emax amounted to 87%.
On the same counts, the results for `Cc1nc(CNC(=O)NCc2nc(C)nn2-c2ccc(Cl)c(CO)c2)n(-c2ccc(Cl)c(F)c2)n1` [Compound 96, 1-({1-[4-chloro-3-(hydroxymethyl)phenyl]-3-methyl-1H-1,2,4-triazol-5-yl}methyl)-3-{[1-(4-chloro-3-fluorophenyl)-3-methyl-1H-1,2,4-triazol-5-yl]methyl}urea] are 34 nM and 100%.
